Experimental data from patent publication US20250177408A1, “INHIBITOR OF INTERACTION BETWEEN YAP/TAZ AND TEAD, PREPARATION THEREOF, PHARMACEUTICAL COMPOSITION THEREOF AND USE THEREOF” (ETERN BIOPHARMA (SHANGHAI) CO., LTD., priority 2022, published 2025).
Counter-ions that a name gives are not always drawn. Like-named read-outs stand apart in the source and are kept apart here.

Legend:
[1] = biological target: YAP-TEAD protein interaction (His-TEAD1 (209-426) protein, Bio-YAP peptide (60-100)) (Homo sapiens, UniProt P28347); experiment: YAP-TEAD protein interaction HTRF experiment; assay type: binding; conditions: His-TEAD1 (209-426) 10 nM, Bio-YAP peptide 50 nM, read-out: Activity of each compound in blocking YAP-TEAD protein interaction (grades of IC50 values)
Sequence of YAP-TEAD protein interaction (His-TEAD1 (209-426) protein, Bio-YAP peptide (60-100)) (P28347 209-426): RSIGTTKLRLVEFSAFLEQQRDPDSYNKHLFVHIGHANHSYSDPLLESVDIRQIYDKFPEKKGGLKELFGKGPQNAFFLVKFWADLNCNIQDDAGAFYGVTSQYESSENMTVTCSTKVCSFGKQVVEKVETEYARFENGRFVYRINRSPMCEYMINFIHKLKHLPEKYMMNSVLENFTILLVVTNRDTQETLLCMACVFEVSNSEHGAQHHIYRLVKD
Outline: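 His-TEAD1 (209-426) at 10 nM final was preincubated 20 min at RT with compounds (10-point 3-fold dilutions, duplicates, 1% DMSO), then Bio-YAP peptide, 10 min. Anti-His-Eu cryptate/streptavidin-XL665 added for 1 h at RT; HTRF read at ex 320 nm, Em665/Em620 ratio ×10000, IC50 from % inhibition.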

[2] = system: MSTO-211H cells; experiment: Cell proliferation inhibition experiment (CellTiter-Glo); assay type: cell-based; conditions: 96 hours, read-out: Inhibitory activity of each compound on the proliferation of MSTO-211H cells (grades of IC50 values)
Method: In this example, the intracellular ATP was quantitatively determined by the CellTiter-Glo luminescence cell viability detection kit to detect the number of living cells in the culture.
Step 1: MSTO-211H (ATCC, CRL-2081TM) or NCI-H2052 (ATCC, CRL-5915TM) cells were inoculated in a 96-well plate at a density of 1500 cells per well with a volume of 100 μL per well, and the cells were incubated overnight in a 37° C., 5% carbon dioxide incubator. The culture medium used was RPMI1640 medium (GIBCO-A10491-01)+10% FBS (GIBCO-10099141C)+1% penicillin/streptomycin (Pen/Strep) (GIBCO-15070-063).
Step 2: The cells were treated with the compounds to be tested. The compounds to be tested were 3-fold diluted, and a total of 9 concentration gradients were set up; a certain volume of DMSO or the compounds to be tested was added to each well, respectively, and 2 replicates were set up for each concentration, and the final concentration of DMSO was controlled to be no higher than 0.5%. The cells were incubated for 96 hours in a 37° C., 5% carbon dioxide incubator.
Step 3: Cell viability was detected in the control group and treatment group using CellTiter-Glo Luminescent Cell Viability Assay kit (Promega, G7570). 50 μL of CellTiter-Glo was added to each well, mixed well, and incubated at room temperature for 10 minutes. The signal was read using En Vision® Multilabel Plate Reader (Perkin Elmer).
The inhibition percentage (%) was calculated using the following formula: […]
Using Graphpad Prism software, the IC50 values of the compounds inhibiting the CTG signal of cell proliferation activity was calculated.

IC50 [1] [nM]	Compound	IC50 ([2]; Homo sapiens) [nM]	IC50 [2] [nM]
< 50	CNC(=O)c1cc2c(c(F)c1-c1c(Cl)c(F)cc3c1C[C@](c1ccccc1)([C@@H]1CCCN1)O3)Oc1c(cnn(CC(F)F)c1=O)O2 (atropisomer, axis not shown) [Compound 141, (S)-8-((S)-5-Chloro-6-fluoro-2-phenyl-2-((S)-pyrrolidin-2-yl)-2,3-dihydrobenzofuran-4-yl)-2-(2,2-difluoroethyl)-9-fluoro-N-methyl-1-oxo-1,2-dihydrobenzo[5,6][1,4]dioxo[2,3-d]pyridazine-7-carboxamide]	< 200	–
< 50	Cn1nc2c(cc1=O)Oc1c(cc(C(N)=O)c(-c3c(Cl)c(F)cc4c3C[C@](c3ccccc3)([C@@H]3CCCN3)O4)c1F)O2 (atropisomer, axis not shown) [Compound 123, (S)-7-((S)-5-Chloro-6-fluoro-2-phenyl-2-((S)-pyrrolidin-2-yl)-2,3-dihydrobenzofuran-4-yl)-6-fluoro-1-methyl-3-oxo-2,3-trihydrobenzo [5,6][1,4]dioxo [2,3-c]pyridazine-8-carboxamide]	200 to 500	–
< 50	Cn1cc2c(n1)COc1c-2cc(C(N)=O)c(-c2c(Cl)c(F)cc3c2C[C@@](CN[C@H]2CC[C@H](C(N)=O)CC2)(c2ccccc2)O3)c1F (atropisomer, axis not shown) [Compound 79]	200 to 500	–
< 50	NC(=O)c1cc2c(c(F)c1-c1c(Cl)c(F)cc3c1C[C@](c1ccccc1)([C@@H]1CCCN1)O3)Oc1c(ncn(CCF)c1=O)O2 (atropisomer, axis not shown) [Compound 137, (S)-7-((S)-5-Chloro-6-fluoro-2-phenyl-2-((S)-pyrrolidin-2-yl)-2,3-dihydrobenzofuran-4-yl)-6-fluoro-3-(2-fluoroethyl)-4-oxo-3,4-dihydrobenzo[5,6][1,4]dioxo [2,3-d]pyrimidine-8-carboxamide]	< 200	–
< 50	NC(=O)c1cc2c(c(F)c1-c1c(Cl)c(F)cc3c1C[C@](c1ccccc1)([C@@H]1CCCN1)O3)Oc1nnccc1O2 [Compound 71, (S)-8-((S)-5-Chloro-6-fluoro-2-phenyl-2-((S)-pyrrolidin-2-yl)-2,3-dihydrobenzofuran-4-yl)-9-fluorobenzo[5,6][1,4]dioxo[2,3-c]pyridazine-7-carboxamide]	–	200 to 500
< 50	CNC(=O)c1cc2c(c(F)c1-c1c(Cl)c(F)cc3c1CC(c1ccccc1)(C1CCCN1)O3)Oc1c(cnn(C)c1=O)O2 [Compound 124, (S)-8-((S)-5-Chloro-6-fluoro-2-phenyl-2-((S)-pyrrolidin-2-yl)-2,3-dihydrobenzofuran-4-yl)-9-fluoro-N,2-dimethyl-1-oxo-1,2-dihydrobenzo[5,6][1,4]dioxo[2,3-d]pyridazine-7-carboxamide]	< 200	–
< 50	O=C(NC1CC1)c1cc2c(c(F)c1-c1c(Cl)c(F)cc3c1C[C@](c1ccccc1)([C@@H]1CCCN1)O3)Oc1c(cnn(CC(F)F)c1=O)O2 (atropisomer, axis not shown) [Compound 160]	< 200	–
< 50	CNC(=O)c1cc2c(c(F)c1-c1c(Cl)c(F)cc3c1C[C@](c1ccccc1)([C@@H]1CCCN1)O3)Oc1c(cnn(CCOC)c1=O)O2 (atropisomer, axis not shown) [Compound 150, (S)-8-((S)-5-Chloro-6-fluoro-2-phenyl-2-((S)-pyrrolidin-2-yl)-2,3-dihydrobenzofuran-4-yl)-9-fluoro-2-(2-methoxyethyl)-N-methyl-1-oxo-1,2-dihydrobenzo [5,6][1,4]dioxo [2,3-d]pyridazine-7-carboxamide]	< 200	–
< 50	[2H]C([2H])([2H])n1ncc2c(c1=O)Oc1c(cc(C(N)=O)c(-c3c(Cl)c(F)cc4c3C[C@](c3ccccc3)([C@@H]3CCCN3)O4)c1F)O2 (atropisomer, axis not shown) [Compound 131, (S)-8-((S)-5-Chloro-6-fluoro-2-phenyl-2-((S)-pyrrolidin-2-yl)-2,3-dihydrobenzofuran-4-yl)-9-fluoro-2-(methyl-d3)-1-oxo-1,2-dihydrobenzo[5,6][1,4]dioxo[2,3-d]pyridazine-7-carboxamide]	< 200	–
< 50	NC(=O)c1cc2c(c(F)c1-c1c(Cl)c(F)cc3c1C[C@](c1ccccc1)([C@@H]1CCCN1)O3)Oc1ncc(CO)nc1O2 (atropisomer, axis not shown) [Compound 102, (S)-8-((S)-5-Chloro-6-fluoro-2-phenyl-2-((S)-pyrrolidin-2-yl)-2,3-dihydrobenzofuran-4-yl)-9-fluoro-3-(hydroxymethyl)benzo[5,6] [1,4]dioxo [2,3-b]pyrazine-7-carboxamide]	< 200	–
< 50	NC(=O)c1cc2c(c(F)c1-c1c(Cl)c(F)cc3c1C[C@](c1ccccc1)([C@@H]1CCCN1)O3)Oc1c(N)ncnc1O2 (atropisomer, axis not shown) [Compound 114, (S)-4-Amino-7-((S)-5-chloro-6-fluoro-2-phenyl-2-((S)-pyrrolidin-2-yl)-2,3-dihydrobenzofuran-4-yl)-6-fluorobenzo[5,6][1,4]dioxo [2,3-d]pyrimidine-8-carboxamide]	500 to 5000	–
< 50	NC(=O)c1cc2c(c(F)c1-c1c(Cl)c(F)cc3c1C[C@](c1ccccc1)([C@@H]1CCCN1)O3)Oc1cc(=O)n(C3CC3)nc1O2 (atropisomer, axis not shown) [Compound 129, (S)-8-((S)-5-Chloro-6-fluoro-2-phenyl-2-((S)-pyrrolidin-2-yl)-2,3-dihydrobenzofuran-4-yl)-2-cyclopropyl-9-fluoro-3-oxo-2,3-hydrobenzo[5,6][1,4]dioxo [2,3-c]pyridazine-7-carboxamide]	200 to 500	–
< 50	CCn1ncc2c(c1=O)Oc1c(cc(C(N)=O)c(-c3c(Cl)c(F)cc4c3C[C@](c3ccccc3)([C@@H]3CCCN3)O4)c1F)O2 (atropisomer, axis not shown) [Compound 109, (S)-8-((S)-5-Chloro-6-fluoro-2-phenyl-2-((S)-pyrrolidin-2-yl)-2,3-dihydrobenzofuran-4-yl)-2-ethyl-9-fluoro-1-oxo-1,2-dihydrobenzo[5,6][1,4]dioxo [2,3-d]pyridazine-7-carboxamide]	< 200	–
< 50	NC(=O)c1cc2c(c(F)c1-c1c(Cl)c(F)cc3c1C[C@](c1ccccc1)([C@@H]1CCCN1)O3)Oc1cn[nH]c(=O)c1O2 (atropisomer, axis not shown) [Compound 108, (S)-8-((S)-5-Chloro-6-fluoro-2-phenyl-2-((S)-pyrrolidin-2-yl)-2,3-dihydrobenzofuran-4-yl)-9-fluoro-4-oxo-3,4-dihydrobenzo[5,6][1,4]dioxo [2,3-d]pyridazine-7-carboxamide]	500 to 5000	–
< 50	CO[C@H]1C[C@H](CNC[C@@]2(c3ccccc3)Cc3c(cc(F)c(Cl)c3-c3c(C(N)=O)cc4c(c3F)OCc3nn(C)cc3-4)O2)C1 (atropisomer, axis not shown) [Compound 84, (S)-7-((S)-5-Chloro-6-fluoro-2-(((((1r,3S)-3-methoxycyclobutyl)methyl)amino)methyl)-2-phenyl-2,3-dihydrobenzofuran-4-yl)-6-fluoro-2-methyl-2,4-dihydrochromeno[3,4-c]pyrazole-8-carboxamide formate]	200 to 500	–
< 50	NC(=O)c1cc2c(c(F)c1-c1c(Cl)c(F)cc3c1C[C@](c1ccccc1)([C@@H]1CCCN1)O3)Oc1c(cnn(C3CC3)c1=O)O2 [Compound 111, (S)-8-((S)-5-Chloro-6-fluoro-2-phenyl-2-((S)-pyrrolidin-2-yl)-2,3-dihydrobenzofuran-4-yl)-2-cyclopropyl-9-fluoro-1-oxo-1,2-dihydrobenzo[5,6][1,4]dioxo[2,3-d]pyridazine-7-carboxamide]	–	< 200
< 50	NC(=O)c1cc2c(c(F)c1-c1c(Cl)c(F)cc3c1C[C@](c1ccccc1)([C@@H]1CCCN1)O3)OCc1n[nH]cc1-2 (atropisomer, axis not shown) [Compound 46, (S)-7-((S)-5-Chloro-6-fluoro-2-phenyl-2-((S)-pyrrolidin-2-yl)-2,3-dihydrobenzofuran-4-yl)-6-fluoro-2,4-dihydrochromeno[3,4-c]pyrazole-8-carboxamide]	< 200	–
